{
  "source": "patent US9156889B2",
  "about": "“Drug transporter permeating blood-brain barrier, peptide and use thereof” (priority 2011, dated 2015)",
  "key": {"[1]": {"test_system": "poliovirus (Mahoney strain)", "assay_type": "binding"}, "[2]": {"test_system": "poliovirus (Mahoney strain)", "assay_type": "binding", "remark": "listed apart in the source"}, "[3]": {"test_system": "poliovirus (Mahoney strain)", "assay_type": "binding", "remark": "listed apart in the source"}, "[4]": {"test_system": "Mouse brain capillary endotherial cells (MBEC) 4"}, "[5]": {"test_system": "Mouse brain capillary endotherial cells (MBEC) 4", "remark": "listed apart in the source"}},
  "note": "Where no end group is shown, it is not given here.",
  "data": [
    {"substance": "GST-mTfR1 (TQFPPSQSS; not fully specified (N-terminus))", "values": [
      {"measurement": "binding to poliovirus: band in western blotting after purification", "setting": "[1]", "value": "band was similarly detected"}
    ]},
    {"substance": "SEQ ID NO: 6 (TQFPPSRSS; listed as Homo sapiens)", "values": [
      {"measurement": "binding to poliovirus (western blotting after purification)", "setting": "[2]", "value": "directly involved with the binding to poliovirus"}
    ]},
    {"substance": "SEQ ID NO: 7 (TQFPPVASS; listed as Homo sapiens)", "values": [
      {"measurement": "binding to poliovirus (western blotting after purification)", "setting": "[2]", "value": "directly involved with the binding to poliovirus"}
    ]},
    {"substance": "SEQ ID NO: 8 (TQFPPVESS; listed as Mus musculus)", "values": [
      {"measurement": "binding to poliovirus (western blotting after purification)", "setting": "[2]", "value": "directly involved with the binding to poliovirus"}
    ]},
    {"substance": "Strep-mTfR1", "values": [
      {"measurement": "binding to poliovirus: band in western blotting after purification", "setting": "[1]", "value": "band was detected"},
      {"measurement": "binding to poliovirus: bands in western blotting after purification", "setting": "[3]", "value": "bands were detected"}
    ]},
    {"substance": "dextran", "values": [
      {"measurement": "PS value (permeation rate, permeation activity)", "setting": "[4]", "value": 0.20}
    ]},
    {"substance": "fluorescence-labeled transferrin", "values": [
      {"measurement": "PS value", "setting": "[5]", "value": 0.33}
    ]},
    {"substance": "transferrin", "values": [
      {"measurement": "effect on the permeation of poliovirus through the blood-brain barrier", "setting": "[4]", "value": "inhibits the permeation of poliovirus"}
    ]}
  ]
}
